The values that follow come from ChEMBL document CHEMBL5726287, “Biaryl acetamide compounds and methods of use thereof” (2017).

The assay deals with Mast/stem cell growth factor receptor Kit (Homo sapiens, UniProt P10721). In words: Competition Binding Assay: Competition binding assays used herein were developed, validated and performed as described in Fabian et al., Nature Biotechnology 2005, 23, 329-336. Kinases were produced as fusions to T7 phage (See, Fabian et al. or WO04/015142) or alternatively, the kinases were expressed in HEK-293 cells and subsequently tagged with DNA for PCR detection (See, WO08/005,310). […] The liganded beads were blocked with excess biotin and washed with blocking buffer (SeaBlock (Pierce), 1% BSA, 0.05% Tween 20, 1 mM DTT) to remove unbound ligand and to reduce non-specific binding. […] Test compounds were prepared as 100× stocks in DMSO and diluted into the aqueous environment. Kds were determined using an eleven point threefold serial dilutions. DMSO or control compounds were was added to control assays lacking a test compound. It counts as cell-based.
Mast/stem cell growth factor receptor Kit, sequence (P10721 whole entry, the tested form may be a part): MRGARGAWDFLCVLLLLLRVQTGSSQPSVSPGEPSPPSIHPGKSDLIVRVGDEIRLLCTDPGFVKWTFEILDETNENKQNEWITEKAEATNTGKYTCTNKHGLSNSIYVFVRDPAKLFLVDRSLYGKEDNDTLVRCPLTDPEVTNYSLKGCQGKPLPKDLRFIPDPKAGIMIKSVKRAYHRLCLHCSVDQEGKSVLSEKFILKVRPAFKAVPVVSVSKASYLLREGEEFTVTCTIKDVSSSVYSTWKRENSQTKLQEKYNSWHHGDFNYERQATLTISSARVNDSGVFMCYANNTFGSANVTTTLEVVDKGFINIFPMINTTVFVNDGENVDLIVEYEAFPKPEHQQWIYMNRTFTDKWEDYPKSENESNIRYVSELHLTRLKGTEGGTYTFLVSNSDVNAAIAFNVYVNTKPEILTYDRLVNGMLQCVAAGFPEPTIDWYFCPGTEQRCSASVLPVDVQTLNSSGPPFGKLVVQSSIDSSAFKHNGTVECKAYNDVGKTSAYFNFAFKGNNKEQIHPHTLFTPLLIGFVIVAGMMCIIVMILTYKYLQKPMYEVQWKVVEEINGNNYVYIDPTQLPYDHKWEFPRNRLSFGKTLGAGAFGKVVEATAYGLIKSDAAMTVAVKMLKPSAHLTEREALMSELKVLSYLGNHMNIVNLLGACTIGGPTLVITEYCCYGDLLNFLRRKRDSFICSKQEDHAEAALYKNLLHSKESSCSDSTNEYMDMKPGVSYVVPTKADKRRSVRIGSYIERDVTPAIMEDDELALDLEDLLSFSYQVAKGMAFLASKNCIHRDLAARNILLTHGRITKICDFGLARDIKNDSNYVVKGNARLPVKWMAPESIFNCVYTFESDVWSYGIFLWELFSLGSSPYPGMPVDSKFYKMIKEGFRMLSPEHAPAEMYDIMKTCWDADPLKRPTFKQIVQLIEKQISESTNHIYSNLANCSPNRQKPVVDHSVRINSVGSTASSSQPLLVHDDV
Broadly, the Kd is the constant that tells how readily two partners part at equilibrium. The compound `COc1cc2ncc(-c3ccc(CC(=O)Nc4cc(C5(C(F)(F)F)CC5)on4)cc3)nc2cc1OC` showed a Kd of less than 5 nM. The value for `COc1cc2nc(-c3ccc(CC(=O)Nc4cc(C5(C)CC5)no4)c(F)c3)cnc2cc1OCCN1CCOCC1` was less than 5 nM. The value for `COc1cc2nc(-c3ccc(CC(=O)Nc4cc(C(C)(C)C(F)(F)F)nn4C)c(F)c3)cnc2cc1OCCN1CCOCC1` was less than 5 nM.
